{
  "source": "patent US6821941B2",
  "about": "“Tablet of compacted particulated cleaning composition” (ISP Investments Inc., priority 2002, dated 2004)",
  "key": {"[1]": {"assay": "Disintegration rate of dishwashing detergent tablet vs. additive ingredient", "type": "physicochemical", "conditions": "additive in standard dishwashing detergent formulation; based on a tablet of 20 g; FIGURE", "source_text": "The FIGURE is a bar graph of Disintegration Rate (g/min) vs. Additive Ingredient present in a standard dishwashing detergent formulation.\nThe dishwashing disintegrant tablets of the invention herein have a disintegration rate of at least 40 g/min (based on a tablet of 20 g)."}, "[2]": {"conditions": "grams of solid to form a saturated solution in 100 g of water at 20° C.; cited from earlier work"}},
  "data": [
    {"smiles": "NC(N)=O", "note": "[Urea]", "values": [
      {"measurement": "Disintegration rate", "setting": "[1]", "result": "minimal"},
      {"measurement": "Water Solubility (g/100 g)", "setting": "[2]", "result": ">100", "unit": "g/100 g"}
    ]}
  ]
}
